pIC50: −log10 of the molar value.

The target of the experiment is T1, human TNIK (N-terminal segment, TNIK_N) (Homo sapiens, UniProt Q9UKE5).
T1 construct: made in house; host or cells: Sf21 insect cells (baculovirus)
T1 sequence (Q9UKE5 1-314): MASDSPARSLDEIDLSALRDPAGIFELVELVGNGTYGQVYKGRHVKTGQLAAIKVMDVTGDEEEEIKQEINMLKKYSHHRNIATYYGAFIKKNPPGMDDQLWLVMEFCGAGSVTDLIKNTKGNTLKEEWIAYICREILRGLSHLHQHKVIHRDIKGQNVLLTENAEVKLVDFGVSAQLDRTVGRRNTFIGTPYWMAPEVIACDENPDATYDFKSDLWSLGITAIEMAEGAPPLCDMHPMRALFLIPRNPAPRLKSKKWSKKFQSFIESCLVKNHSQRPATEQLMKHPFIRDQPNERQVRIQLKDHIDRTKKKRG
Briefly: TNIK kinase assay (mobility shift). To be noted: 25 μM ATP, 1 h at room temperature. Format: biochemical. From the text: A cDNA encoding the N-terminal segment (TNIK_N, residues 1-314) containing the kinase domain of human TNIK (NM_015028.1) was amplified from cDNA mixture synthesized from human tissue (Biochain) by PCR using the following primers: 5′-[…]-3′ ([SEQ ID NO:1]: forward primer, the underlined nucleotides indicates the location of a EheI site); 5′-[…]-3′ ([SEQ ID NO:2]: reverse primer, the underlined nucleotides indicates the location of a NotI site). The cDNA was subcloned into baculovirus transfer vector pFastBac_GSTb that includes protease cleavage site and glutathione S-transferase purification tag (GST-tag). The plasmid was purified and the insertion of the pFastBac_GSTb-TNIK_N was confirmed by DNA sequencing. Then E. coli DH10Bac competent cells were transformed with the plasmid to prepare the recombinant bacmid according to the instructions for the Bac-to-Bac™ baculovirus expression systems (Invitrogen). The Sf9 cells were transfected with the recombinant bacmid containing pFastBac_GSTb-TNIK_N using Cellfectin Reagent (Invitrogen) in SF-900II serum free media (Invitrogen). The viral supernatant was collected from the medium 72 h after transfection. The virus was amplified three times by infecting actively growing Sf9 or Sf21 cells in Grace's insect media (Invitrogen) supplemented with 10% FCS and an antibiotic-antimycotic reagent (Invitrogen) for 72 h at 27° C. in T-flask or roller bottles. The titer of amplified TNIK_N virus was estimated at 2.36×10^8 pfu/ml by using BacPAK™ Baculovirus Rapid Titer kit (Clontech).
Log-phase Sf21 cells (2×10^6 cells/ml) in the Grace's insect media were infected with the recombinant baculovirus at MOI of 3.0 and incubated in roller bottles (250 ml media per bottle) for 72 h at 27° C., after which, the cells were collected by centrifugation, and the cell pellet washed with cold PBS and kept at −80° C. until purification. The following purification procedures were carried out at 4° C. The frozen cells were thawed on ice and lysed in lysis buffer (50 mM Tris-HCl, pH 7.5, 150 mM NaCl, 1% Nonidet P-40, 5 mM DTT, 0.5 mM EDTA, 0.5 mM EGTA) supplemented with 1 mM phenylmethansulfonylfluoride, 2 μg/ml leupeptin, 2 μg/ml aprotinin, 1 mM NaF, 100 μM sodium orthovanadate, and 1 μM cantharidin by sonication. The suspended lysate was cleared by centrifugation at 9000 g for 20 min and the supernatant was incubated for 1 h with glutathione Sepharose beads (GE Healthcare). The beads were suspended in buffer-H (50 mM Tris-HCl, pH 7.5, 1 M NaCl, 1 mM DTT, 0.5 mM EDTA, 0.5 mM EGTA and 0.05% Brij35) and washed with buffer-H followed by buffer-L (50 mM Tris-HCl, pH 7.5, 150 mM NaCl, 1 mM DTT, 0.5 mM EDTA, 0.5 mM EGTA, 0.05% Brij35) in an Econo-pack column (BIO-RAD). The bound TNIK_N was eluted with elution buffer (50 mM Tris-HCl, pH 8.0, 150 mM NaCl, 1 mM DTT, 10% glycerol, 0.5 mM EDTA, 0.5 mM EGTA and 5 mM reduced glutathione). The eluted fractions were collected and determined the protein concentration by Bradford reagent (BIO-RAD). The TNIK_N fractions were pooled and desalted using 10DG column (BIORAD) equilibrated with the storage buffer (50 mM Tris-HCl, pH 7.5, 150 mM NaCl, 1 mM DTT, 10% glycerol, 0.05% Brij35). The purified TNIK_N was characterized by electrophoresis using 4-20% polyacrylamide gels and matrix-assisted laser desorption/ionization reflection time-of-flight (MALDI-TOF) mass spectrometry on a Voyager-DE RP MALDI/TOF (Applied Biosystems). TNIK_N was confirmed by the molecular weight and MASCOT Peptide Mass Fingerprint.
The kinase assays were conducted in a 20 μl volume using 384-well plates (Greiner). The reaction mixture consists of compound or vehicle (1% DMSO), 0.08 ng/μl TNIK_N, 1 μM FITC-labeled substrate peptides, FITC-x-Lys-Tyr-Lys-Thr-Leu-Arg-Gln ([SEQ ID NO.3], x: ε-aminocaproic acid), 20 mM Hepes, pH 7.5, 0.01% Triton X-100, 5 mM MgCl2, 25 μM ATP and 2 mM DTT. As blank, TNIK_N was excluded from the reaction mixture of vehicle (1% DMSO). […]
The term pIC50 denotes the IC50 on a negative log10 scale, so that one unit is a factor of ten. With `CC(=O)Nc1ccc(C(=O)Nc2sc(Nc3cccnc3)nc2C(N)=O)cc1` [Compound A20, 5-(4-acetamidobenzamido)-2-(pyridin-3-ylamino) thiazole-4-carboxamide], the negative-log IC50 (pIC50) was 8.05.

Regarding `Cc1ccc(C(=O)Nc2sc(Nc3ccccc3)nc2C(N)=O)cc1` [Compound A1, 5-(4-methylbenzamido)-2-(phenylamino)thiazole-4-carboxamide], the pIC50 was 8.22.

With `NC(=O)c1nc(Nc2ccccc2)sc1NC(=O)CC1CCCC1` [Compound 8, 5-(2-cyclopentylacetamido)-2-(phenylamino)thiazole-4-carboxamide], the pIC50 was 6.89.

As to `COc1ccc(Nc2nc(C(N)=O)c(NC(=O)c3ccc(NCCN(C)C)cc3)s2)cc1` [Compound A24, 5-{4-[2-(dimethylamino)ethylamino]benzamido}-2-(4-methoxyphenylamino)thiazole-4-carboxamide], the pIC50 was 7.96.

With `COc1ccc(Nc2nc(C(N)=O)c(NC(=O)c3ccc(NC(=O)CO)cc3)s2)cc1` [Compound A37, 5-[4-(2-hydroxyacetamido)benzamido]-2-(4-methoxyphenylamino)thiazole-4-carboxamide], the pIC50 is 8.05.

Take `Cc1ccc(Nc2nc(C(N)=O)c(NC(=O)c3cccc(Br)c3)s2)cc1` [Compound 12, 2-(p-toluidino)-5-(3-bromobenzamido)thiazole-4-carboxamide]: the pIC50 is 5.77.

As for `COc1ccc(C(=O)Nc2sc(Nc3cncnc3)nc2C(N)=O)cc1` [Compound A69, 5-(4-methoxybenzamido)-2-(pyrimidin-5-ylamino)thiazole-4-carboxamide], the pIC50 is 8.15.

As to `NC(=O)c1nc(Nc2ccccc2)sc1NC(=O)c1ccccc1F` [Compound 3, 5-(2-fluorobenzamido)-2-(phenylamino)thiazole-4-carboxamide], the pIC50 was 7.72.

For the compound `CCC(CC)C(=O)Nc1sc(Nc2ccc(C)cc2)nc1C(N)=O` [Compound 16, 2-(p-toluidino)-5-(2-ethylbutanamido)thiazole-4-carboxamide], the negative logarithm of the IC50 (pIC50) is 5.39.

With `COc1ccc(Nc2nc(C(N)=O)c(NC(=O)c3ccc(OCCN4CCCC4)cc3)s2)cc1` [Compound A45, 2-(4-methoxyphenylamino)-5-{4-[2-(pyrrolidin-1-yl)ethoxy]benzamido}thiazole-4-carboxamide], the negative logarithm of the IC50 (pIC50) is 7.66.

Regarding `COc1cccc(C(=O)Nc2sc(Nc3ccccc3)nc2C(N)=O)c1` [Compound 5, 5-(3-methoxybenzamido)-2-(phenylamino)thiazole-4-carboxamide], the pIC50 is 5.11.

On to `COc1ccc(Nc2nc(C(N)=O)c(NC(=O)c3ccc(NC(C)=O)cc3)s2)cc1` [Compound A11, 5-(4-acetamidobenzamido)-2-(4-methoxyphenyl-amino)thiazole-4-carboxamide], for which the negative-log IC50 (pIC50) was 7.85.

Consider `NC(=O)c1nc(Nc2ccccc2)sc1NC(=O)c1ccc(F)cc1` [Compound A2, 5-(4-fluorobenzamido)-2-(phenylamino)thiazole-4-carboxamide], for which the pIC50 is 7.77.

With `Cc1cccc(C(=O)Nc2sc(Nc3ccccc3)nc2C(N)=O)c1` [Compound 2, 5-(3-methylbenzamido)-2-(phenylamino)thiazole-4-carboxamide], the pIC50 is 7.40.

Regarding `COc1ccc(Nc2nc(C(N)=O)c(NC(=O)c3ccc(NCCN4CCCC4)cc3)s2)cc1` [Compound A29, 2-(4-methoxyphenylamino)-5-{4-[2-(pyrrolidin-1-yl)ethylamino]benzamido}thiazole-4-carboxamide], the pIC50 is 8.10.

As for `COc1ccc(Nc2nc(C(N)=O)c(NC(=O)c3ccc(NCCN4CCCCC4)cc3)s2)cc1` [Compound A49, 2-(4-methoxyphenylamino)-5-{4-[2-(piperidin-1-yl)ethylamino]benzamido}thiazole-4-carboxamide], the pIC50 is 8.30.

Take `COc1ccc(Nc2nc(C(N)=O)c(NC(=O)c3ccc(NCCc4ccncc4)cc3)s2)cc1` [Compound A55, 2-(4-methoxyphenylamino)-5-{4-[2-(pyridin-4-yl)ethylamino]benzamido}thiazole-4-carboxamide]: the pIC50 is 8.00.

With `COc1ccc(Nc2nc(C(N)=O)c(NC(=O)c3ccc(NCCN4CCOCC4)cc3)s2)cc1` [Compound A27, 2-(4-methoxyphenylamino)-5-[4-(2-morpholino-ethyl-amino)benzamido]thiazole-4-carboxamide], the pIC50 was 8.05.

`Cc1ccc(Nc2nc(C(N)=O)c(NC(=O)c3ccccc3F)s2)cc1` [Compound 9, 2-(p-toluidino)-5-(2-fluorobenzamido)thiazole-4-carboxamide]: the pIC50 is 7.17.

Consider `CCNc1nc(C(N)=O)c(NC(=O)c2cc(-c3ccccc3)nc3c(C)cccc23)s1` [Compound 17, 2-(ethylamino)-5-(8-methyl-2-phenylquinoline-4-carboxamido)thiazole-4-carboxamide], for which the pIC50 is 5.51.

As to `CC(=O)Nc1ccc(C(=O)Nc2sc(Nc3ccc(C)cc3)nc2C(N)=O)cc1` [Compound 10, 2-(p-toluidino)-5-(4-acetamidobenzamido)thiazole-4-carboxamide], the pIC50 was 7.85.

Regarding `COc1ccc(C(=O)Nc2sc(Nc3ccc(C)cc3)nc2C(N)=O)cc1OC` [Compound 14, 2-(p-toluidino)-5-(3,4-dimethoxybenzamido)thiazole-4-carboxamide], the pIC50 was 7.24.

Consider `COc1ccc(Nc2nc(C(N)=O)c(NC(=O)c3ccc(N(S(C)(=O)=O)S(C)(=O)=O)cc3)s2)cc1` [Compound A48, 2-(4-methoxyphenylamino)-5-{4-[N-(methyl-sulfonyl)methylsulfonamido]benzamido} thiazole-4-carboxamide], for which the pIC50 was 8.22.

As for `CC(C)CC(=O)Nc1sc(Nc2ccccc2)nc1C(N)=O` [Compound 7, 5-(3-methylbutanamido)-2-(phenylamino)thiazole-4-carboxamide], the negative-log IC50 (pIC50) was 6.74.

Turning to `Cc1ccc(Nc2nc(C(N)=O)c(NC(=O)c3cccs3)s2)cc1` [Compound 15, 2-(p-toluidino)-5-(thiophene-2-carboxamido)thiazole-4-carboxamide], the pIC50 is 7.51.

As for `NC(=O)c1nc(Nc2ccccc2)sc1NC(=O)Cc1cccs1` [Compound 6, 2-(phenylamino)-5-(2-(thiophen-2-yl)acetamido)thiazole-4-carboxamide], the pIC50 is 6.55.

`Cc1ccc(Nc2nc(C(N)=O)c(NC(=O)c3c(F)cccc3F)s2)cc1` [Compound 13, 2-(p-toluidino)-5-(2,6-difluorobenzamido)thiazole-4-carboxamide]: the pIC50 was 6.74.

Consider `NC(=O)c1nc(Nc2cccnc2)sc1NC(=O)c1ccc(NCCO)cc1` [Compound A72, 5-[4-(2-hydroxyethylamino)benzamido]-2-(pyridin-3-ylamino)thiazole-4-carboxamide], for which the pIC50 was 8.40.

Take `COc1ccc(C(=O)Nc2sc(Nc3ccc(CO)cc3)nc2C(N)=O)cc1` [Compound A102, 2-[4-(hydroxymethyl)phenylamino]-5-(4-methoxy-benzamido)thiazole-4-carboxamide]: the negative-log IC50 (pIC50) was 8.22.

For the origin of these results see patent publication US20100216795A1, “TNIK INHIBITOR AND THE USE” (priority 2008, published 2010).
